In patent US20060135624A1, “Natural compound useful for treating diabetes, its preparation and use” (JINGYU LIANG ET AL, priority 2002, published 2006):

Tests used:
[1] = system: mouse hyperglycemia induced by adrenalin; assay: Effect of Sequoyitol on mouse hyperglycemia induced by adrenalin; type: in vivo, Kunming mice; conditions: Glibenclamide 10 mg/kg oral 7 days
Protocol: 1. Experimental Methods^[3] • 72 Mice were randomly divided into 6 groups, wherein 4 groups were orally administrated with 25, 50 and 100 mg/kg of Sequoyitol and 10 mg/kg of Glibenclamide according to 0,1 ml/10 g of body weight, respectively, and the normal group and modeling group were administrated with the same volum of distilled water. These administrations were conducted for continuous 7 days. The normal group was administrated with the same volum of physiological saline by injection, while other groups were administrated with 0.2 mg/kg of adrenalin by intra-abdominal injection. The blood-sugar levels were detected by glucose oxidase method after 30 minutes of administration. The livers of the mice were collected, and hepatic glycogen levels were detected by anthrone method.

[2] = system: blood-sugar level of normal mice; assay: Effect of Sequoyitol on blood-sugar level of normal mice; type: in vivo, Kunming mice; conditions: Glibenclamide 50 mg/kg oral 7 days
Protocol: 1. Experimental Method^[3] • 60 Mice were randomly divided into 5 groups, […] according to 0.1 ml/10 g of body weight, respectively, and the normal group was administrated with the same volum of the same volum of distilled water. These administrations were conducted for continuous 7 days. The blood-sugar levels were detected by glucose oxidase method.

[3] = system: mouse hyperglycemia induced by alloxan; assay: Time-effect relation of Sequoyitol to mouse hyperglycemia induced by alloxan; type: in vivo, Kunming mice; conditions: phenformine 75 mg/kg p.o. 7 days
Protocol: 1. Experimental Methods^[1,2] • Alloxan was administrated to each of 30 mice by caudal vein injection with a dose of 65 mg/kg, and the mice were modeled according to the method of documents, divided into 3 groups according to blood-sugar values, […] according to […] of body weight, and the modeling group was administrated with the same volum of distilled water, separately. These administrations were conducted for continuous 7 days, and the mice were fasted for 2 hours before the last administration, and their blood-sugar levels were detected by glucose oxidase method at 1 2, 3 and 5 hours after the last administration.

[4] = system: mouse hyperglycemia induced by alloxan; assay: Effects of Sequoyitol on mouse hyperglycemia induced by alloxan; type: in vivo, Kunming mice; conditions: phenformine 75 mg/kg p.o. 7 days
Protocol: 1. Experimental Methods^[1,2] • Among 60 mice, 10 mice were randomly selected as normal group, and the residual mice were administrated with 65 mg/kg alloxan by caudal vein injection, modeled according to the method of documents, and divided into 5 groups according to blood-sugar values, wherein 4 groups were perorally administrated with 25, 50 and 100 mg/kg of Sequoyitol and 75 mg/kg of phenformine according to 0.1 ml/10 g of body weight, respectively, and the normal group and modeling group were administrated with the same volum of distilled water, separately. These administrations were conducted for continuous 7 days. The blood-sugar levels were detected by glucose oxidase method. The pancreatic glands of the mice were soaked in 10% formalin, embedded with paraffin, sliced, and dyed with HE dye.

[5] = system: mouse hyperglycemia induced by glucose; assay: Effect of Sequoyitol on mouse hyperglycemia induced by glucose; type: in vivo, Kunming mice; conditions: phenformine 75 mg/kg oral 7 days; 30, 60, 90, 120 minutes after i.p. glucose
Protocol: 1. Experimental Method^[4] • 72 Mice were randomly divided into 6 groups, […] according to 0.1 ml/10 g of body weight, respectively, and the normal group and modeling group were administrated with the same volum of distilled water. These administrations were conducted for continuous 7 days. The normal group was administrated with the same volum of physiological saline by injection, while other groups were administrated with […] of glucose by intra-abdominal injection. After 30, 60, 90 and 120 minutes of administration, bloods were collected from venous plexus behind fossa orbitalis, the serums were separated, and the blood-sugar levels were separately detected by glucose oxidase method.

[6] = system: rat hyperglycemia induced by alloxan; assay: Effect of Sequoyitol on rat hyperglycemia induced by alloxan; type: in vivo, SD rats
Protocol: 1. Experimental Methods^[5,6] • 5 Rats were randomly selected as normal group, the other 55 rats were fasted for 14-16 hours, administrated with 30 mg/kg of Pentobarbital by intra-abdominal injection. After paralyzed, the rats were administrated with 48 mg/kg of alloxan by vena femoralis injection, modeled according to methods of documents, and divided into 5 groups according to blood-sugar level, wherein each group had 11 rats, and 4 groups were orally administrated with 25, 50 and 100 mg/kg of Sequoyitol and 75 mg/kg of phenformine according to 1 ml/100 g of body weight, respectively, and the normal group and modeling group were administrated with the same volum of distilled water. These administrations were conducted for continuous 18 days. The fasting blood-sugar levels of the rats were separately measured at 6th and 12th day after the administration. At the 18th day, blood was collected from arteria femoralis, and the blood sugar level, insulin level, cholesterol content, triglyceride content, malonaldehyde content, and hepatocuprein activity of serum were measured; liver tissue was homogenated, and the malonaldehyde content, and hepatocuprein activity of liver tissue were measured; and pancreatic gland was soaked in 10% formalin, embedded with paraffin, sliced, and dyed with HE.

[7] = system: mouse hyperglycemia induced by Streptozocin; assay: Effect of Sequoyitol on mouse hyperglycemia induced by Streptozocin; type: in vivo, Kunming mice
Protocol: 1. Experimental Methods^[7,8] • Among 66 mice, 10 mice were randomly selected as normal group, and the residual mice were administrated with 160 mg/kg Streptozocin by vena caudalis injection, modeled according to methods of documents, and divided into 5 groups according to blood-sugar level, wherein 4 groups were perorally administrated with 25, 50 and 100 mg/kg of Sequoyitol and 75 mg/kg of phenformine according to 0.1 ml/10 g of body weight, respectively, and the normal group and modeling group were administrated with the same volum of distilled water. These administrations were conducted for continuous 18 days. The blood-sugar levels of the mice were separately measured at 6th and 12th day after the administration. At the 18th day, blood was collected by excising eyeballs, serum was separated, and the blood sugar level, insulin level, cholesterol content, triglyceride content, malonaldehyde content, and hepatocuprein activity of serum were measured; liver tissue was homogenated, and the malonaldehyde content and hepatocuprein activity of liver tissue were measured; and pancreatic gland was soaked in 10% formalin, embedded with paraffin, sliced, and dyed with HE.

[8] = phenformine 75 mg/kg oral 18 days
[9] = phenformine 75 mg/kg p.o. 18 days

## COc1ccc(Cl)cc1C(=O)NCCc1ccc(S(=O)(=O)NC(=O)NC2CCCCC2)cc1 [Glibenclamide, reference compound]
[1]; 30 minutes after adrenalin 0.2 mg/kg i.p.
  blood-sugar level decreased compared to the control group: 40.1 mg/dL
[1]; adrenalin model
  hepatic glycogen level increased compared to the control group: 1.28 mg/g of liver tissue
[2]
  blood-sugar level decreased compared to the normal group: 19.3 mg/dL

## [H]/N=C(/N)N/C(=N/[H])NCCc1ccccc1 [phenformine, reference compound]
[3]; 1 hour after last administration
  blood-sugar level decreased compared to the control group: 163.1 mg/dL
[3]; 2 hours after last administration
  blood-sugar level decreased compared to the control group: 159.3 mg/dL
[3]; 3 hours after last administration
  blood-sugar level decreased compared to the control group: 104.2 mg/dL
[3]; 5 hours after last administration
  blood-sugar level decreased compared to the control group: 56.6 mg/dL
[4]
  blood-sugar level decreased compared to the control group: 152.8 mg/dL
  number of pancreatic islands and number of islet cells (histopathologic examination) compared to the model group: increased slightly
[5]
  glucose-induced hyperglycemia compared to the control group: highly significantly alleviated
[6]; phenformine 75 mg/kg oral
  body weight of rats compared to the control group: did not significantly change
[6]; [8]
  activity of hepatocuprein in liver tissue compared to the control group: did not significantly change
  activity of hepatocuprein in serum compared to the control group: did not significantly change
  content of cholesterol in serum compared to the control group: did not significantly change
  content of malonaldehyde in liver tissue compared to the control group: decreased slightly
  content of malonaldehyde in serum compared to the control group: decreased slightly
  content of triglyceride in serum compared to the control group: did not significantly change
  serum insulin level compared to the control group: increased
[6]; phenformine 75 mg/kg oral, since the 6th day
  alloxan-induced hyperglycemia compared to the control group: highly significantly alleviated
[7]; phenformine 75 mg/kg p.o.
  body weight of mice compared to the control group: did not significantly change
[7]; [9]
  activity of hepatocuprein in serum compared to the control group: did not significantly change
  content of cholesterol in serum compared to the control group: did not significantly change
  content of malonaldehyde in liver tissue compared to the control group: did not significantly change
  content of triglyceride in serum compared to the control group: did not significantly change
  hyalinization of interstitial small vessels (histopathologic examination): not alleviated
  number of pancreatic islands and number of cells in pancreatic islands (histopathologic examination): slightly increased
  serum insulin level compared to the control group: increased
[7]; phenformine 75 mg/kg p.o., 12th day
  Streptozocin-induced hyperglycemia compared to the control group: significantly alleviated
